One block for each molecule: values may come before it.
How the values were obtained:
histamine H3 receptor = biological target: T1, histamine H3 receptor (Cavia porcellus, UniProt Q9JI35); test: Guinea pig ileal longitudinal muscle, myenteric plexus functional assay (antagonism of R-(α)-methylhistamine inhibition of electrically-stimulated contraction); format: cell-based; details: guinea pig ileum; antagonist affinity from rightward shift of R-(α)-methylhistamine E/[A] curves (Schild); typical variance ±0.15 log units; read-out: pKB (functional assay) - ileum (converted)
T1 construct: the longitudinal muscle layer and adhering myenteric plexus was teased away; from tissue; host or cells: guinea pig ileum longitudinal muscle with adhering myenteric plexus (intact tissue strips)
Description: The biological activity of the compounds of the examples was measured using the ileal longitudinal muscle, myenteric plexus assay described by Paton and Aboo Zar (J. Physiol. 1968, 194, 13-33). Male Dunkin-Hartley guinea pigs (250-300 g) were employed. Briefly, a 50 cm portion of ileum proximal to the caecum was removed, after discarding the terminal 20 cm. Ileal segments (3 cm) were cleaned by passing Krebs-Henseleit buffer containing 3 μM mepyramine gently through the ileum using a Pasteur pipette (size: 13.8 cm length, 0.65 cm diameter). To avoid unnecessary damage to the tissue, Krebs-Henseleit buffer was passed through the ileal segment, while it was lying horizontally on a petri dish. Therefore, the ileum was not over-distended and the buffer flowed through with ease. Each segment was then passed over a Pasteur pipette and the longitudinal muscle layer and adhering myenteric plexus was teased away using moist cotton wool, by stroking tangentially away from the mesenteric attachment. The tissues were suspended in 20 ml organ baths containing Krebs-Henseleit buffer at 37±1° C. and gassed with […]. The tissues were ligated to two parallel stainless steel wires, situated between two platinum electrodes (0.76 cm length, 0.06 cm diameter). All measurements were recorded isometrically (Grass FTO3 transducer). Following an initial loading tension of 1 g, the tissues were stimulated with electrical pulses at a frequency of 0.1 lHz and a pulse duration of 0.5 msec, as described by Kosterlitz & Watt (Br. J. Pharmacol. 1968, 266-276). Initially, the tissues were stimulated at supramaximal (1.3 fold times maximal) voltage for a period of 30 min and then the tissues were washed and re-stimulated.A "sighter dose" of the selective histamine H3 -receptor agonist, R-(α)-methylhistamine (0.3 μM) (Arrang el al. Nature, 1987, 117-123), was administered. Upon generation of response, the "sighter dose" was removed from the tissues by "washout" (6 washes over 60 min) and during this period the electrical stimulation was switched off. The tissues were then re-stimulated and allowed to stabilise prior to the addition of drug treatments, which were allocated on a randomised block basis to the organ baths. Following the incubation period, a single cumulative E/[A] curve was obtained. The experimental E/[A] curve data was expressed as the percentage inhibition of the peak height of electrically-stimulated contraction. Antagonist affinity values were calculated from the degree of rightward shift of the R-(α)-methylhistamine E/[A] curves using Schild's methods (Arunlakshana & Schild Br. J. Pharmacol, 1959, 48-58). Typical variance in this assay is ±0.15 log units.

[1] = biological target: T2, Histamine H3 receptor (guinea pig ileum longitudinal muscle myenteric plexus membranes) (Cavia porcellus, UniProt Q9JI35); test: Histamine H3 radioligand binding assay - guinea pig ileum; details: [3H]-R-α-methylhistamine (50 μl; 3 nM), 165 min, 21±3° C., pH7.4, typical variance ±0.12 log units, read-out: pKI (binding assay) - ileum (converted)
T2 construct: Guinea pig ileum longitudinal muscle myenteric plexus membranes; from tissue; host or cells: guinea pig ileum longitudinal muscle myenteric plexus membranes
Description: Histamine H3 radioligand binding assay--guinea pig ileum
Male Dunkin Hartley guinea pigs (200-300 g) were used. The small intestine was rapidly removed (cut ^- 5 cm from caecum and 5 cm from stomach) and placed in ice-cold 20 mM Hepes-NaOH buffer (pH7.4 at 21±3° C.). The tissue was cut into ^- 10 cm segments, flushed through with ice-cold 20 mM Hepes-NaOH buffer and placed in a beaker containing fresh buffer at 4° C. 10 cm segments of ileum were threaded onto a glass pipette and the longitudinal muscle myenteric plexus was peeled away from the circular muscle using damp cotton-wool. Longitudinal muscle myenteric plexus was immediately placed in ice-cold Viaspan® solution (^~ 100 ml for tissue from 3 guinea pigs) and placed in the refrigerator for 24 hours.
Pre-soaked tissue was weighed and minced with scissors. The tissue was then homogenised in Viaspan® using a polytron (Kinematica AG; PT-DA 3020/2TS, 3×^- 1-2s). 50 ml of 500 mM Tris HCl (pH6.9 at 21±3° C.) was added to the tissue and the mixture centrifuged at 39,800×g for 12 min at 4° C. The supernatant was discarded and rehomogenised in 100 ml ice-cold 20 mM Hepes-NaOH buffer (pH7.4 at 21±3° C.) using a teflon-in-glass homogeniser (setting 10; 3×). The homogenate was recentrifuged at 39,800×g and the pellet resuspended in 20 mM Hepes-NaOH buffer (pH7.4 at 21±3° C.), to a tissue concentration of 50 mg.ml^-1, using a polytron (Brinkman, PT10, 3×^~1 s).
Guinea pig ileum longitudinal muscle myenteric plexus membranes (400 μl) were incubated for 165 min at 21±3° C. in a final volume of 500 μl with 20 mM Hepes-NaOH buffer containing [^3 H]-R-α-methylhistamine (50 μl; 3 nM) and competing compound. Total and non-specific binding of [^3 H]-R-α-methylhistamine were defined using 50 μl of buffer and 50 μl of 10 μM thioperamide, respectively. The assay was terminated by rapid filtration through Whatman GF/B filters, presoaked (2 hr) in 0.1% polyethyleneimine, using a Brandell Cell Harvester. The filters were washed (3×3 ml) with ice-cold 50 mM Tris-HCl (pH6.9 at 21±3° C.), transferred into scintillation vials, 5 ml liquid scintillation cocktail was added and after 4 hours the bound radioactivity was determined by counting (4 min) in a Beckman liquid scintillation counter.
(§1) Data are analysed using GraphPad prism and the general equation for a competition curve with variable Hill slope (nH). [formula] where
(§2) X is the log concentration of competing compound,
(§3) Y is the binding obtained at each concentration of X,
(§4) pIC50 is the […] required to compete for half of the specific binding.
The IC50 is converted to the KI using the Cheng Prusoff equation, […]
KD is the equilibrium dissociation constant for the radioligand determined by saturation experiments. […]

[2] = biological target: T3, Histamine H3 receptor (guinea pig cortex membranes) (Cavia porcellus, UniProt Q9JI35); test: Histamine H3 radioligand binding assay - guinea pig cortex; details: [3H]-R-α-methylhistamine 0.1 nM final, typical variance ±0.12 log units, read-out: pKI (binding assay) - cortex (converted)
T3 construct: The cortex was dissected, weighed and homogenised; from tissue; host or cells: guinea pig cerebral cortex membranes
Description: as §1, §2, §3, §4
The IC50 is converted to the KI using the Cheng Prusoff equation,
IC50 is the concentration of competitor required to compete for half the specific binding,
L is the radioligand concentration used,
KD is the equilibrium dissociation constant for the radioligand determined by saturation experiments.
Histamine H3 radioligand binding assay--guinea pig cortex
Male Dunkin Hartley guinea pigs (200-300 g) were used. The whole brain was removed and immediately placed in ice-cold 20 mM Hepes-NaOH buffer (pH7.4 at 21±3° C.). The cortex was dissected, weighed and homogenised in ice-cold 20 mM Hepes-NaOH buffer (pH7.4 at 21±3° C.) (50 ml/guinea-pig cortex) using a polytron (Kinematica AG; PT-DA 3020/2TS, 3×3s). The homogenate was centrifuged at 100×g for 5 min and the supernatants pooled and stored at 4° C. The pellets were rehomogenised in fresh ice-cold buffer (80 ml) and recentrifuged (100×g for 5 min). The supernatants were pooled and pellets rehomogenised and recentrifuged (100×g for 5 min). All supernatants were pooled and centrifuged at 39,800×g for 12 min at 4° C. The final pellet was resuspended in 20 mM Hepes-NaOH buffer (pH7.4 at 21±3° C.) to a tissue concentration of 7.5 mg.ml^-1, using a teflon-in-glass homogeniser.
These were essentially identical to those used for the guinea pig ileum myenteric plexus assay described above, except that the final assay concentration of [^3 H]-R-α-methylhistamine was 0.1 nM. Typical variance in this assay is ±0.12 log units.

T1 sequence (Q9JI35 whole entry): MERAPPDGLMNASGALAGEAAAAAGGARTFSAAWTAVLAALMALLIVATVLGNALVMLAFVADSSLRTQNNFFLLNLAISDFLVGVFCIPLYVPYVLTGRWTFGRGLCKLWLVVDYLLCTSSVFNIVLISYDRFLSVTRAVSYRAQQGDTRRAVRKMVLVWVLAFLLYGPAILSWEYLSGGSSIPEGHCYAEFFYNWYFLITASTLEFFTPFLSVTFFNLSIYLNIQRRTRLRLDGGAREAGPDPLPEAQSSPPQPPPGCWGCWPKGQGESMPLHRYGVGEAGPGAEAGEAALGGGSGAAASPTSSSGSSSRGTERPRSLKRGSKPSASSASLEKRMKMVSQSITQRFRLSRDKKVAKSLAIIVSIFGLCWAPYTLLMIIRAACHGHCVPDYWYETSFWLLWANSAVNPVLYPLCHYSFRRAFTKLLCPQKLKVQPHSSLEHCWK
T2 sequence (Q9JI35 whole entry): as above
T3 sequence (Q9JI35 whole entry): as above

SMILES: O=S1(=O)NCCN1CCc1c[nH]cn1 [Example 2, 2-(2-(4-imidazolyl)ethyl)-1,2,5-thiadiazolidine-1,1-dioxide]
- Kb (histamine H3 receptor): 240 nM
- Ki [2]: 4170 nM

SMILES: O=C1CNS(=O)(=O)N1CCCc1c[nH]cn1 [Example 4, 2-(3-(4-imidazolyl)propyl)-1,2,5-thiadiazolidin-3-one-1,1-dioxide]
- Kb (histamine H3 receptor): 1780 nM
- Ki [2]: 115 nM

SMILES: O=S1(=O)N(CCCc2c[nH]cn2)CCN1Cc1ccccc1 [Example 5, 5-benzyl-2-(3-(4-imidazolyl)propyl)-1,2,5-thiadiazolidine-1,1-dioxide]
- Kb (histamine H3 receptor): > 10000 nM
- Ki [1]: 2950 nM
- Ki [2]: 6310 nM

SMILES: O=C1C(Cc2ccc(Cl)cc2)NS(=O)(=O)N1CCCCc1c[nH]cn1 (centres unmarked) [Example 7, 2-(4-(4-imidazolyl)butyl)-4-(4-chlorophenyl)methyl-1,2,5-thiadiazolidin-3-one-1,1-dioxide]
- Kb (histamine H3 receptor): 44.7 nM
- Ki [2]: 0.513 nM

SMILES: O=C1CNS(=O)(=O)N1CCCCc1c[nH]cn1 [Example 8, 2-(4-(4-imidazolyl)butyl)-1,2,5-thiadiazolidin-3-one-1,1-dioxide]
- Kb (histamine H3 receptor): 2400 nM
- Ki [2]: 501 nM

Continued, values first:

- Kb (histamine H3 receptor): 123 nM
- Ki [1]: 42.7 nM
- Ki [2]: 46.8 nM
SMILES: O=S1(=O)NC(Cc2ccc(Cl)cc2)CN1CCCCCc1c[nH]cn1 (centres unmarked) [Example 1, 4-(4-chlorophenyl)methyl-2-(5-(4-imidazolyl)pentyl)-1,2,5-thiadiazolidine-1,1-dioxide]

- Kb (histamine H3 receptor): 355 nM
- Ki [1]: 13.5 nM
- Ki [2]: 2.57 nM
SMILES: O=S1(=O)NCCN1CCCc1c[nH]cn1 [Example 3, 2-(3-(4-imidazolyl)propyl)-1,2,5-thiadiazolidine-1,1-dioxide]

- Kb (histamine H3 receptor): 891 nM
- Ki [1]: 1660 nM
- Ki [2]: 43.7 nM
SMILES: C[C@H]1CN(CCc2c[nH]cn2)[S+]([O-])N1 (stereo partly drawn) [Example 6, 2-(4-imidazolyl)ethyl-4(S)-methyl-1,2,5-thiadiazolidine-1-oxide]

— US6159994A, “Histamine H3 receptor ligands” (James Black Foundation, priority 1997, dated 2000)
